Assay results published in PubChem BioAssay AID248 (DTP/NCI, 2004).
Values joined by “and” are separate entries in the source; they are usually repeats but may differ in a detail not shown here. Equal entries are not always repeated. Inconclusive results and toxic doses are left out. No stated cut-off is given here; in the data, active means T/C of 150% or more; inactive means T/C below 125%.

Test system: L1210 leukemia ip in BDF1 mice, survival T/C
Assay: NCI In Vivo Anticancer Drug Screen. Data for tumor model L1210 Leukemia (intraperitoneal) in B6D2F1 (BDF1) mice
Settings: endpoint: mean survival time, higher = longer survival
In short: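 Transplantable tumor model; survival measured in treated vs vehicle control mice. Value = treated/control.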

[1] = dose: 100.0 mg/kg/injection, schedule: Q04DX002 (ip), vehicle: Klucel (hydroxypropylcellulose) (HPC)
[2] = dose: 200.0 mg/kg/injection, schedule: Q04DX002 (ip), vehicle: Klucel (hydroxypropylcellulose) (HPC)
[3] = dose: 100.0 mg/kg/injection, schedule: Q04DX003 (ip), vehicle: saline with Tween-80
[4] = dose: 200.0 mg/kg/injection, schedule: Q04DX003 (ip), vehicle: saline with Tween-80
[5] = dose: 100.0 mg/kg/injection, schedule: Q04DX003 (ip), vehicle: saline
[6] = dose: 200.0 mg/kg/injection, schedule: Q04DX003 (ip), vehicle: saline
[7] = dose: 400.0 mg/kg/injection, schedule: Q04DX003 (ip), vehicle: saline
[8] = dose: 100.0 mg/kg/injection, schedule: Q01DX001 (ip), vehicle: other
[9] = dose: 200.0 mg/kg/injection, schedule: Q01DX001 (ip), vehicle: other
[10] = dose: 400.0 mg/kg/injection, schedule: Q01DX001 (ip), vehicle: other
[11] = dose: 100.0 mg/kg/injection, schedule: Q01DX009 (ip), vehicle: saline with Tween-80
[12] = dose: 400.0 mg/kg/injection, schedule: Q01DX009 (ip), vehicle: saline with Tween-80
[13] = dose: 400.0 mg/kg/injection, schedule: Q04DX003 (ip), vehicle: saline with Tween-80
[14] = dose: 50.0 mg/kg/injection, schedule: Q01DX001 (ip), vehicle: saline
[15] = dose: 100.0 mg/kg/injection, schedule: Q01DX001 (ip), vehicle: saline
[16] = dose: 200.0 mg/kg/injection, schedule: Q01DX001 (ip), vehicle: saline
[17] = dose: 100.0 mg/kg/injection, schedule: Q01DX009 (ip), vehicle: saline
[18] = dose: 200.0 mg/kg/injection, schedule: Q01DX009 (ip), vehicle: saline
[19] = dose: 400.0 mg/kg/injection, schedule: Q01DX009 (ip), vehicle: saline

Measured: T/C

NC(N)=NN(CCN(N=O)N=C(N)N)N=O
inactive: [1] 96 % of control | [2] 104 % of control | dose: 400.0 mg/kg/injection, schedule: Q04DX002 (ip), vehicle: Klucel (hydroxypropylcellulose) (HPC) 86 % of control

O=C(CCOCc1ccccc1)N1Cc2cc3ccccc3nc2C1=O
inactive: dose: 10.0 mg/kg/injection, schedule: Q07DX002 (ip), vehicle: alcohol 89 % of control | dose: 20.0 mg/kg/injection, schedule: Q07DX002 (ip), vehicle: alcohol 99 % of control | dose: 40.0 mg/kg/injection, schedule: Q07DX002 (ip), vehicle: alcohol 92 % of control | dose: 80.0 mg/kg/injection, schedule: Q07DX002 (ip), vehicle: alcohol 86 % of control

Oc1c(Br)cc(Br)cc1C=Nc1ccc(I)cc1.Oc1c(Br)cc(Br)cc1C=Nc1ccc(I)cc1.[Co]
inactive: [3] 98 % of control | [4] 92 % of control

N#CCc1c[nH]c2ccc(OCc3ccccc3)cc12
inactive: dose: 50.0 mg/kg/injection, schedule: Q01DX009 (ip), vehicle: other 100 % of control | dose: 100.0 mg/kg/injection, schedule: Q01DX009 (ip), vehicle: other 94 % of control | dose: 200.0 mg/kg/injection, schedule: Q01DX009 (ip), vehicle: other 108 % of control

COC1=NS(=O)(=O)N=C(C)O1
inactive: dose: 100.0 mg/kg/injection, schedule: Q04DX003 (ip), vehicle: Klucel (hydroxypropylcellulose) (HPC) 91 % of control | dose: 200.0 mg/kg/injection, schedule: Q04DX003 (ip), vehicle: Klucel (hydroxypropylcellulose) (HPC) 102 % of control | dose: 400.0 mg/kg/injection, schedule: Q04DX003 (ip), vehicle: Klucel (hydroxypropylcellulose) (HPC) 93 % of control

C[N+](C)(C)CC1CCCC1C[N+](C)(C)C (centres undefined)
inactive: dose: 50.0 mg/kg/injection, schedule: Q04DX003 (ip), vehicle: saline 110 % of control | [5] 96 % of control | [6] 102 % of control | [7] 90 % of control

NC(=S)c1ncc(N)s1
inactive: dose: 100.0 mg/kg/injection, schedule: Q04DX002 (ip), vehicle: saline with Tween-80 92 % of control | dose: 200.0 mg/kg/injection, schedule: Q04DX002 (ip), vehicle: saline with Tween-80 100 % of control | dose: 400.0 mg/kg/injection, schedule: Q04DX002 (ip), vehicle: saline with Tween-80 120 % of control

COc1ccc(C2=NNC(c3ccc(OC)cc3)=NN2)cc1
inactive: [8] 104 % of control | [9] 96 % of control | [10] 93 % of control

Nc1nc(N)c2cc(CNc3ccc(C(=O)NC(CCCC(=O)O)C(=O)O)cc3)ccc2n1 (centres undefined)
inactive: dose: 0.25 mg/kg/injection, schedule: Q01DX009 (ip), vehicle: saline 124 % of control | dose: 0.5 mg/kg/injection, schedule: Q01DX009 (ip), vehicle: saline 117 % of control | dose: 2.0 mg/kg/injection, schedule: Q01DX009 (ip), vehicle: saline 101 % of control | dose: 16.0 mg/kg/injection, schedule: Q04DX003 (ip), vehicle: saline 92 % of control

CCOc1ccc(OCC)c(NC(=O)Nc2ccc(F)c([N+](=O)[O-])c2)c1
inactive: dose: 100.0 mg/kg/injection, schedule: Q01DX009 (ip), vehicle: Klucel (hydroxypropylcellulose) (HPC) 101 % of control | dose: 200.0 mg/kg/injection, schedule: Q01DX009 (ip), vehicle: Klucel (hydroxypropylcellulose) (HPC) 93 % of control | dose: 400.0 mg/kg/injection, schedule: Q01DX009 (ip), vehicle: Klucel (hydroxypropylcellulose) (HPC) 87 % of control

CCOC(=O)C(COS(C)(=O)=O)NS(=O)(=O)c1ccc(C)cc1 (centres undefined)
inactive: dose: 100.0 mg/kg/injection, schedule: Q01DX001 (ip), vehicle: Klucel (hydroxypropylcellulose) (HPC) 98 % of control | dose: 200.0 mg/kg/injection, schedule: Q01DX001 (ip), vehicle: Klucel (hydroxypropylcellulose) (HPC) 104 % of control | dose: 400.0 mg/kg/injection, schedule: Q01DX001 (ip), vehicle: Klucel (hydroxypropylcellulose) (HPC) 95 % of control

Clc1ccc(/C=N\N=C\c2ccc(Cl)c(Cl)c2)cc1Cl
inactive: dose: 25.0 mg/kg/injection, schedule: Q01DX009 (ip), vehicle: saline with Tween-80 90 % of control | dose: 50.0 mg/kg/injection, schedule: Q01DX009 (ip), vehicle: saline with Tween-80 90 % of control | [11] 95 % of control and 90 % of control | [4] 90 % of control | [12] 97 % of control | [13] 91 % of control

C=CCOc1ccccc1C
inactive: [14] 98 % of control | [15] 95 % of control | [16] 97 % of control

c1ccc(-c2nc3nnnn3nc2-c2ccccc2)cc1
inactive: [14] 100 % of control | [15] 103 % of control | [16] 98 % of control

C[N+](C)(C)C1(Cc2ccc(Cl)cc2)c2ccccc2-c2ccccc21
inactive: dose: 12.5 mg/kg/injection, schedule: Q01DX009 (ip), vehicle: Klucel (hydroxypropylcellulose) (HPC) 97 % of control | dose: 12.5 mg/kg/injection, schedule: Q04DX003 (ip), vehicle: Klucel (hydroxypropylcellulose) (HPC) 95 % of control | dose: 25.0 mg/kg/injection, schedule: Q01DX009 (ip), vehicle: Klucel (hydroxypropylcellulose) (HPC) 92 % of control | dose: 25.0 mg/kg/injection, schedule: Q04DX003 (ip), vehicle: Klucel (hydroxypropylcellulose) (HPC) 95 % of control | dose: 50.0 mg/kg/injection, schedule: Q01DX009 (ip), vehicle: Klucel (hydroxypropylcellulose) (HPC) 98 % of control | dose: 50.0 mg/kg/injection, schedule: Q04DX003 (ip), vehicle: Klucel (hydroxypropylcellulose) (HPC) 92 % of control

CCOC(=O)C(=Cc1c[nH]c2ccccc12)C(=O)OCC
inactive: [11] 108 % of control | [3] 96 % of control | dose: 200.0 mg/kg/injection, schedule: Q01DX009 (ip), vehicle: saline with Tween-80 90 % of control | [4] 96 % of control | [12] 92 % of control | [13] 96 % of control

CN=Cc1ccccc1
inactive: dose: 50.0 mg/kg/injection, schedule: Q04DX003 (ip), vehicle: saline with Tween-80 91 % of control | [3] 94 % of control

CC(C)CC(CC(C)C)OB(OC(CC(C)C)CC(C)C)OC(CC(C)C)CC(C)C
inactive: dose: 50.0 mg/kg/injection, schedule: Q01DX001 (ip), vehicle: other 96 % of control | [8] 96 % of control | [9] 96 % of control | [10] 90 % of control

Oc1ccc(O)c(-c2cc3c(O)ccc(O)c3[nH]2)c1
inactive: dose: 25.0 mg/kg/injection, schedule: Q04DX002 (ip), vehicle: Klucel (hydroxypropylcellulose) (HPC) 104 % of control | dose: 50.0 mg/kg/injection, schedule: Q04DX002 (ip), vehicle: Klucel (hydroxypropylcellulose) (HPC) 93 % of control | [1] 104 % of control | [2] 96 % of control

O=C(Nc1ccc(C2=NCCN2)cc1)Nc1ccccc1NC(=O)Nc1ccc(C2=NCCN2)cc1
inactive: dose: 3.12 mg/kg/injection, schedule: Q01DX Z (ip), vehicle: water 100 % of control | dose: 6.25 mg/kg/injection, schedule: Q01DX Z (ip), vehicle: water 117 % of control | dose: 12.5 mg/kg/injection, schedule: Q01DX Z (ip), vehicle: water 105 % of control

Nc1nc(N)c2nc3c(nc2n1)C(=O)N(c1ccc(C(=O)NC(CCC(=O)O)C(=O)O)cc1)C3 (centres undefined)
inactive: [17] 94 % of control | [18] 98 % of control | [19] 86 % of control

Cc1ncc(CO)c(/C=N/OCc2nnc(Nc3ccccc3)s2)c1O
inactive: [3] 92 % of control | [4] 101 % of control | [13] 106 % of control

CCOC(=O)C1(C)OCCO1
inactive: [17] 101 % of control | [5] 103 % of control | [18] 100 % of control | [6] 96 % of control | [19] 95 % of control | [7] 99 % of control
